Where “and” joins values, the source holds several entries; their conditions need not be identical. Identical values can stand only once. Toxic doses and inconclusive results are not listed. How the source made its calls: active means survival T/C of 150% or more; inactive means T/C below 125% in these data.
System: BDF1 mice, L1210 leukemia sc, survival T/C
Test: NCI In Vivo Anticancer Drug Screen. Data for tumor model L1210 Leukemia (subcutaneous) in B6D2F1 (BDF1) mice
Details: higher = longer survival
Summary of the method: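 Expressed as T/C: measurement in compound-treated, tumor-bearing mice relative to vehicle-treated control mice, based on survival or tumor size.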

[1] = endpoint: median survival time, dose: 23.0 mg/kg/injection, schedule: Q01DX Z (sc), vehicle: methylcellulose (MC)
[2] = endpoint: median survival time, dose: 65.0 mg/kg/injection, schedule: Q01DX Z (sc), vehicle: methylcellulose (MC)
[3] = endpoint: median survival time, dose: 108.0 mg/kg/injection, schedule: Q01DX Z (sc), vehicle: methylcellulose (MC)
[4] = endpoint: median survival time, dose: 180.0 mg/kg/injection, schedule: Q01DX Z (sc), vehicle: methylcellulose (MC)
[5] = endpoint: median survival time, dose: 300.0 mg/kg/injection, schedule: Q01DX Z (sc), vehicle: saline
[6] = endpoint: median survival time, dose: 500.0 mg/kg/injection, schedule: Q01DX Z (sc), vehicle: saline
[7] = endpoint: median survival time, dose: 108.0 mg/kg/injection, schedule: Q01DX Z (sc), vehicle: saline
[8] = endpoint: median survival time, dose: 180.0 mg/kg/injection, schedule: Q01DX Z (sc), vehicle: saline
[9] = endpoint: median survival time, dose: 5.0 mg/kg/injection, schedule: Q01DX Z (sc), vehicle: methylcellulose (MC)
[10] = endpoint: median survival time, dose: 8.4 mg/kg/injection, schedule: Q01DX Z (sc), vehicle: methylcellulose (MC)
[11] = endpoint: median survival time, dose: 14.0 mg/kg/injection, schedule: Q01DX Z (sc), vehicle: methylcellulose (MC)
[12] = endpoint: median survival time, dose: 39.0 mg/kg/injection, schedule: Q01DX Z (sc), vehicle: methylcellulose (MC)

Measured: T/C

O=c1cnn(C2OC(CO)C(O)C2O)c(=O)[nH]1 (stereo not given)
inactive: endpoint: median survival time, dose: 37.5 mg/kg/injection, schedule: Q01DX009 (ip), vehicle: water 114 % of control | endpoint: median survival time, dose: 75.0 mg/kg/injection, schedule: Q01DX009 (ip), vehicle: water 118 % of control and 121 % of control | endpoint: median survival time, dose: 75.0 mg/kg/injection, schedule: Q01DX009 (sc), vehicle: water 120 % of control | endpoint: median survival time, dose: 108.0 mg/kg/injection, schedule: Q01DX Z (sc), vehicle: other 120 % of control | endpoint: median survival time, dose: 150.0 mg/kg/injection, schedule: Q01DX009 (ip), vehicle: water 117 % of control and 120 % of control | endpoint: median survival time, dose: 150.0 mg/kg/injection, schedule: Q01DX009 (sc), vehicle: water 121 % of control and 122 % of control | endpoint: median survival time, dose: 180.0 mg/kg/injection, schedule: Q01DX Z (sc), vehicle: other 120 % of control | endpoint: median survival time, dose: 300.0 mg/kg/injection, schedule: Q01DX009 (ip), vehicle: water 117 % of control and 123 % of control | endpoint: median survival time, dose: 300.0 mg/kg/injection, schedule: Q01DX009 (sc), vehicle: water 117 % of control and 122 % of control | endpoint: median survival time, dose: 300.0 mg/kg/injection, schedule: Q01DX Z (sc), vehicle: other 120 % of control | endpoint: median survival time, dose: 500.0 mg/kg/injection, schedule: Q01DX Z (sc), vehicle: other 120 % of control | endpoint: median survival time, dose: 600.0 mg/kg/injection, schedule: Q01DX009 (ip), vehicle: water 118 % of control | endpoint: median survival time, dose: 600.0 mg/kg/injection, schedule: Q01DX009 (sc), vehicle: water 117 % of control | endpoint: median survival time, dose: 833.0 mg/kg/injection, schedule: Q01DX Z (sc), vehicle: other 110 % of control | endpoint: median survival time, dose: 1000.0 mg/kg/injection, schedule: Q01DX Z (sc), vehicle: other 122 % of control | endpoint: median survival time, dose: 1200.0 mg/kg/injection, schedule: Q01DX009 (ip), vehicle: water 104 % of control and 117 % of control | endpoint: median survival time, dose: 1200.0 mg/kg/injection, schedule: Q01DX009 (sc), vehicle: water 114 % of control

C[C@@H](CN1CC(=O)NC(=O)C1)N1CC(=O)NC(=O)C1
active: endpoint: median survival time, dose: 128.0 mg/kg/injection, schedule: Q01DX009 (ip), vehicle: water 150 % of control
inactive: endpoint: median survival time, dose: 8.0 mg/kg/injection, schedule: Q01DX009 (ip), vehicle: water 103 % of control | endpoint: median survival time, dose: 16.0 mg/kg/injection, schedule: Q01DX009 (ip), vehicle: water 105 % of control and 115 % of control | endpoint: median survival time, dose: 32.0 mg/kg/injection, schedule: Q01DX009 (ip), vehicle: water 114 % of control | endpoint: median survival time, dose: 512.0 mg/kg/injection, schedule: Q01DX009 (ip), vehicle: water 121 % of control

O=NN(CCF)C(=O)NC1CCCCC1
active: endpoint: median survival time, dose: 8.4 mg/kg/injection, schedule: Q01DX Z (sc), vehicle: carboxymethylcellulose (CMC) 289 % of control | endpoint: median survival time, dose: 14.0 mg/kg/injection, schedule: Q01DX Z (sc), vehicle: carboxymethylcellulose (CMC) 347 % of control | endpoint: median survival time, dose: 23.0 mg/kg/injection, schedule: Q01DX Z (oral), vehicle: carboxymethylcellulose (CMC) 321 % of control | endpoint: median survival time, dose: 23.0 mg/kg/injection, schedule: Q01DX Z (sc), vehicle: carboxymethylcellulose (CMC) 305 % of control | endpoint: median survival time, dose: 39.0 mg/kg/injection, schedule: Q01DX Z (oral), vehicle: carboxymethylcellulose (CMC) 242 % of control | endpoint: median survival time, dose: 65.0 mg/kg/injection, schedule: Q01DX Z (oral), vehicle: carboxymethylcellulose (CMC) 163 % of control
inactive: endpoint: median survival time, dose: 108.0 mg/kg/injection, schedule: Q01DX Z (oral), vehicle: carboxymethylcellulose (CMC) 121 % of control

CNC=O
inactive: endpoint: median survival time, dose: 112.0 mg/kg/injection, schedule: Q01DX Z (sc), vehicle: saline 100 % of control | endpoint: median survival time, dose: 187.0 mg/kg/injection, schedule: Q01DX Z (sc), vehicle: saline 104 % of control | endpoint: median survival time, dose: 311.0 mg/kg/injection, schedule: Q01DX Z (sc), vehicle: saline 116 % of control

CCC(=O)O[C@H]1CC[C@H]2[C@@H]3CC[C@H]4CC(=O)[C@H](C)C[C@]4(C)[C@H]3CC[C@]12C
inactive: [1] 100 % of control | [2] 100 % of control | [3] 100 % of control | [4] 100 % of control

Nc1cc(=O)[nH][nH]1
inactive: [5] 100 % of control | [6] 105 % of control | endpoint: median survival time, dose: 833.0 mg/kg/injection, schedule: Q01DX Z (sc), vehicle: saline 90 % of control | endpoint: median survival time, dose: 1388.0 mg/kg/injection, schedule: Q01DX Z (sc), vehicle: saline 90 % of control

O=c1[nH]cc(Br)c(=O)[nH]1
inactive: endpoint: median survival time, dose: 38.9 mg/kg/injection, schedule: Q01DX Z (sc), vehicle: saline 91 % of control | endpoint: median survival time, dose: 64.8 mg/kg/injection, schedule: Q01DX Z (sc), vehicle: saline 95 % of control | [7] 100 % of control | [8] 100 % of control | [5] 100 % of control | [6] 100 % of control

ClCCn1c2ccccc2c2ccccc21
inactive: [9] 100 % of control | [10] 100 % of control | [11] 100 % of control | [1] 100 % of control | [12] 100 % of control | [2] 100 % of control | [3] 100 % of control

Cc1c(O)ccc(=O)n1O
inactive: endpoint: median survival time, dose: 65.0 mg/kg/injection, schedule: Q01DX Z (sc), vehicle: carboxymethylcellulose (CMC) 100 % of control | endpoint: median survival time, dose: 108.0 mg/kg/injection, schedule: Q01DX Z (sc), vehicle: carboxymethylcellulose (CMC) 100 % of control | endpoint: median survival time, dose: 180.0 mg/kg/injection, schedule: Q01DX Z (sc), vehicle: carboxymethylcellulose (CMC) 100 % of control | endpoint: median survival time, dose: 300.0 mg/kg/injection, schedule: Q01DX Z (sc), vehicle: carboxymethylcellulose (CMC) 100 % of control | endpoint: median survival time, dose: 500.0 mg/kg/injection, schedule: Q01DX Z (sc), vehicle: carboxymethylcellulose (CMC) 100 % of control

COc1cc(NS(C)(=O)=O)ccc1Nc1c2ccccc2nc2ccccc12
inactive: endpoint: mean survival time, dose: 0.75 mg/kg/injection, schedule: Q01DX009 (ip), vehicle: saline 97 % of control | endpoint: mean survival time, dose: 1.25 mg/kg/injection, schedule: Q01DX009 (ip), vehicle: saline 100 % of control | endpoint: mean survival time, dose: 1.5 mg/kg/injection, schedule: Q01DX009 (ip), vehicle: saline 99 % of control | endpoint: mean survival time, dose: 2.5 mg/kg/injection, schedule: Q01DX009 (ip), vehicle: saline 104 % of control | endpoint: mean survival time, dose: 3.0 mg/kg/injection, schedule: Q01DX009 (ip), vehicle: saline 110 % of control | endpoint: mean survival time, dose: 5.0 mg/kg/injection, schedule: Q01DX009 (ip), vehicle: saline 103 % of control and 112 % of control | endpoint: mean survival time, dose: 6.0 mg/kg/injection, schedule: Q01DX009 (ip), vehicle: saline 110 % of control | endpoint: mean survival time, dose: 10.0 mg/kg/injection, schedule: Q01DX009 (ip), vehicle: saline 100 % of control | endpoint: median survival time, dose: 0.5 mg/kg/injection, schedule: Q01DX009 (ip), vehicle: other 103 % of control | endpoint: median survival time, dose: 1.0 mg/kg/injection, schedule: Q01DX009 (ip), vehicle: other 102 % of control | endpoint: median survival time, dose: 2.0 mg/kg/injection, schedule: Q01DX009 (ip), vehicle: other 103 % of control | endpoint: median survival time, dose: 4.0 mg/kg/injection, schedule: Q01DX009 (ip), vehicle: other 118 % of control

Cn1c(O)c(N=NC(N)=S)c2ccccc21
inactive: [9] 100 % of control | [10] 100 % of control | [11] 100 % of control | [1] 100 % of control | [12] 100 % of control | [2] 100 % of control | [3] 100 % of control | [4] 100 % of control

Nc1nc(=S)c2ncn(C3OC(COC(=O)c4ccccc4)C(OC(=O)c4ccccc4)C3OC(=O)c3ccccc3)c2[nH]1 (stereo not given)
inactive: [1] 100 % of control | [12] 100 % of control | [2] 110 % of control | [3] 100 % of control and 112 % of control | [4] 108 % of control | endpoint: median survival time, dose: 300.0 mg/kg/injection, schedule: Q01DX Z (sc), vehicle: methylcellulose (MC) 100 % of control | endpoint: median survival time, dose: 500.0 mg/kg/injection, schedule: Q01DX Z (sc), vehicle: methylcellulose (MC) 91 % of control

CC(C)CN(N)C(N)=O
inactive: endpoint: median survival time, dose: 78.0 mg/kg/injection, schedule: Q01DX Z (sc), vehicle: saline 100 % of control | endpoint: median survival time, dose: 130.0 mg/kg/injection, schedule: Q01DX Z (sc), vehicle: saline 100 % of control | endpoint: median survival time, dose: 216.0 mg/kg/injection, schedule: Q01DX Z (sc), vehicle: saline 100 % of control | endpoint: median survival time, dose: 360.0 mg/kg/injection, schedule: Q01DX Z (sc), vehicle: saline 111 % of control | endpoint: median survival time, dose: 600.0 mg/kg/injection, schedule: Q01DX Z (sc), vehicle: saline 111 % of control

CS(=O)(=O)OCC(O)C(O)COS(C)(=O)=O (stereo not given)
inactive: endpoint: median survival time, dose: 39.0 mg/kg/injection, schedule: Q01DX Z (sc), vehicle: saline 95 % of control | endpoint: median survival time, dose: 65.0 mg/kg/injection, schedule: Q01DX Z (sc), vehicle: saline 91 % of control | [7] 91 % of control | [8] 91 % of control | [5] 100 % of control
